In ChEMBL document CHEMBL3045571, “Repellent activity of essential oils and some of their individual constituents against Tribolium castaneum herbst” (J Agric Food Chem, 2011):

Columns and labels:
Tribolium castaneum [1] = assay: Repellent activity against Tribolium castaneum (red flour beetle) assessed as induction of repellency measured 4 hr post compound exposure at 0.2 uL/cm2 using 15% compound formulation; assay type: functional
Tribolium castaneum [2] = assay: Repellent activity against Tribolium castaneum (red flour beetle) assessed as induction of repellency measured 4 hr post compound exposure at 0.02 uL/cm2 using 15% compound formulation; assay type: functional
Tribolium castaneum [3] = assay: Repellent activity against Tribolium castaneum (red flour beetle) assessed as induction of repellency measured 4 hr post compound exposure at 0.002 uL/cm2 using 15% compound formulation; assay type: functional
Tribolium castaneum [4] = assay: Repellent activity against Tribolium castaneum (red flour beetle) assessed as induction of repellency measured 4 hr post compound exposure at 0.0002 uL/cm2 using 15% compound formulation; assay type: functional
Tribolium castaneum [5] = assay: Repellent activity against Tribolium castaneum (red flour beetle) assessed as induction of repellency measured 4 hr post compound exposure at 0.00002 uL/cm2 using 15% compound formulation; assay type: functional
Tribolium castaneum [6] = assay: Repellent activity against Tribolium castaneum (red flour beetle) assessed as induction of repellency measured 2 hr post compound exposure at 0.2 uL/cm2 using 15% compound formulation; assay type: functional
Tribolium castaneum [7] = assay: Repellent activity against Tribolium castaneum (red flour beetle) assessed as induction of repellency measured 2 hr post compound exposure at 0.02 uL/cm2 using 15% compound formulation; assay type: functional
Tribolium castaneum [8] = assay: Repellent activity against Tribolium castaneum (red flour beetle) assessed as induction of repellency measured 2 hr post compound exposure at 0.002 uL/cm2 using 15% compound formulation; assay type: functional
Tribolium castaneum [9] = assay: Repellent activity against Tribolium castaneum (red flour beetle) assessed as induction of repellency measured 2 hr post compound exposure at 0.0002 uL/cm2 using 15% compound formulation; assay type: functional
Tribolium castaneum [10] = assay: Repellent activity against Tribolium castaneum (red flour beetle) assessed as induction of repellency measured 2 hr post compound exposure at 0.00002 uL/cm2 using 15% compound formulation; assay type: functional
[11] = Lipophilicity, logP of the compound; assay type: physicochemical; conditions: octanol/water

Q: Which Repellency (Tribolium castaneum [1]) does the source give for `C=CC(=C)CCC=C(C)C` [MYRCENE] here?
A: Its Repellency is 93%.

Q: And the Repellency (Tribolium castaneum [2])?
A: Its Repellency is 71%.

Q: What about the Repellency (Tribolium castaneum [3]) of the same molecule?
A: The Repellency was 65%.

Q: What about the Repellency (Tribolium castaneum [4]) of the same molecule?
A: The Repellency was 30%.

Q: And the Repellency (Tribolium castaneum [5])?
A: The Repellency was 25%.

Q: And the Repellency (Tribolium castaneum [6])?
A: Its Repellency is 85%.

Q: What about the Repellency (Tribolium castaneum [7]) of the same molecule?
A: Its Repellency is 61%.

Q: And the Repellency (Tribolium castaneum [8])?
A: Its Repellency is 56%.

Q: What about the Repellency (Tribolium castaneum [9]) of the same molecule?
A: The Repellency was 33%.

Q: What about the Repellency (Tribolium castaneum [10]) of the same molecule?
A: Its Repellency is 28%.

Q: With `C=C(C)[C@@H]1CC=C(C)C(=O)C1` [L-CARVONE] as the molecule, how does the Repellency (Tribolium castaneum [1]) read?
A: The Repellency was 95%.

Q: What about the Repellency (Tribolium castaneum [2]) of the same molecule?
A: The Repellency was 74%.

Q: And the Repellency (Tribolium castaneum [3])?
A: The Repellency was 68%.

Q: What about the Repellency (Tribolium castaneum [4]) of the same molecule?
A: Its Repellency is 44%.

Q: And the Repellency (Tribolium castaneum [5])?
A: The Repellency was 19%.

Q: What about the Repellency (Tribolium castaneum [6]) of the same molecule?
A: Its Repellency is 100%.

Q: What about the Repellency (Tribolium castaneum [7]) of the same molecule?
A: Its Repellency is 84%.

Q: What about the Repellency (Tribolium castaneum [8]) of the same molecule?
A: Its Repellency is 55%.

Q: What about the Repellency (Tribolium castaneum [9]) of the same molecule?
A: The Repellency was 35%.

Q: And the Repellency (Tribolium castaneum [10])?
A: The Repellency was 21%.

Q: With `CC(=O)OC/C=C(\C)CCC=C(C)C` [GERANYL ACETATE] as the molecule, how does the Repellency (Tribolium castaneum [1]) read?
A: The Repellency was 94%.

Q: What about the Repellency (Tribolium castaneum [2]) of the same molecule?
A: Its Repellency is 63%.

Q: And the Repellency (Tribolium castaneum [3])?
A: The Repellency was 24%.

Q: And the Repellency (Tribolium castaneum [4])?
A: The Repellency was 23%.

Q: What about the Repellency (Tribolium castaneum [5]) of the same molecule?
A: Its Repellency is 8%.

Q: And the Repellency (Tribolium castaneum [6])?
A: Its Repellency is 95%.

Q: What about the Repellency (Tribolium castaneum [7]) of the same molecule?
A: Its Repellency is 60%.

Q: And the Repellency (Tribolium castaneum [8])?
A: The Repellency was 21%.

Q: What about the Repellency (Tribolium castaneum [9]) of the same molecule?
A: Its Repellency is 21%.

Q: And the Repellency (Tribolium castaneum [10])?
A: Its Repellency is 5%.

Q: Which Repellency (Tribolium castaneum [1]) does the source give for `CC(C)=CCC/C(C)=C/C=O` [CITRAL] here?
A: Its Repellency is 98%.

Q: What about the Repellency (Tribolium castaneum [2]) of the same molecule?
A: The Repellency was 79%.

Q: What about the Repellency (Tribolium castaneum [3]) of the same molecule?
A: The Repellency was 55%.

Q: What about the Repellency (Tribolium castaneum [4]) of the same molecule?
A: Its Repellency is 51%.

Q: What about the Repellency (Tribolium castaneum [5]) of the same molecule?
A: Its Repellency is 21%.

Q: And the Repellency (Tribolium castaneum [6])?
A: The Repellency was 98%.

Q: And the Repellency (Tribolium castaneum [7])?
A: Its Repellency is 89%.

Q: What about the Repellency (Tribolium castaneum [8]) of the same molecule?
A: Its Repellency is 66%.

Q: And the Repellency (Tribolium castaneum [9])?
A: Its Repellency is 64%.

Q: What about the Repellency (Tribolium castaneum [10]) of the same molecule?
A: Its Repellency is 18%.

Q: For `Cc1ccc(C(C)C)cc1` [P-CYMENE], which Repellency (Tribolium castaneum [1]) is on record?
A: The Repellency was 69%.

Q: What about the Repellency (Tribolium castaneum [2]) of the same molecule?
A: Its Repellency is 45%.

Q: What about the Repellency (Tribolium castaneum [3]) of the same molecule?
A: The Repellency was 44%.

Q: And the Repellency (Tribolium castaneum [4])?
A: The Repellency was -8%.

Q: And the Repellency (Tribolium castaneum [5])?
A: The Repellency was -5%.

Q: And the Repellency (Tribolium castaneum [6])?
A: The Repellency was 74%.

Q: And the Repellency (Tribolium castaneum [7])?
A: The Repellency was 61%.

Q: What about the Repellency (Tribolium castaneum [8]) of the same molecule?
A: The Repellency was 43%.

Q: What about the Repellency (Tribolium castaneum [9]) of the same molecule?
A: Its Repellency is -10%.

Q: And the Repellency (Tribolium castaneum [10])?
A: Its Repellency is -6%.

Q: Which results are given for `CC(C)=CCC/C(C)=C\CO` [NEROL]?
A: logP [11]: 3.47; Repellency (Tribolium castaneum [1]): 95%; Repellency (Tribolium castaneum [2]): 75%; Repellency (Tribolium castaneum [3]): 60%; Repellency (Tribolium castaneum [4]): 30%; Repellency (Tribolium castaneum [5]): 8%; Repellency (Tribolium castaneum [6]): 98%; Repellency (Tribolium castaneum [7]): 84%; Repellency (Tribolium castaneum [8]): 64%; Repellency (Tribolium castaneum [9]): 39%; Repellency (Tribolium castaneum [10]): 8%

Q: For `O=C(OCc1ccccc1)c1ccccc1O` [BENZYL SALICYLATE], which Repellency (Tribolium castaneum [1]) is on record?
A: Its Repellency is 99%.

Q: And the Repellency (Tribolium castaneum [2])?
A: The Repellency was 78%.

Q: What about the Repellency (Tribolium castaneum [3]) of the same molecule?
A: The Repellency was 46%.

Q: What about the Repellency (Tribolium castaneum [4]) of the same molecule?
A: The Repellency was 25%.

Q: What about the Repellency (Tribolium castaneum [5]) of the same molecule?
A: Its Repellency is -34%.

Q: And the Repellency (Tribolium castaneum [6])?
A: The Repellency was 94%.

Q: And the Repellency (Tribolium castaneum [7])?
A: Its Repellency is 74%.

Q: And the Repellency (Tribolium castaneum [8])?
A: The Repellency was 65%.

Q: And the Repellency (Tribolium castaneum [9])?
A: Its Repellency is 29%.

Q: And the Repellency (Tribolium castaneum [10])?
A: The Repellency was -29%.

Q: Which results are given for `C=C(C)[C@H]1CC=C(C)C(=O)C1` [(S)(+)CARVONE]?
A: logP [11]: 3.07; Repellency (Tribolium castaneum [1]): 94%; Repellency (Tribolium castaneum [2]): 85%; Repellency (Tribolium castaneum [3]): 30%; Repellency (Tribolium castaneum [4]): 21%; Repellency (Tribolium castaneum [5]): -10%; Repellency (Tribolium castaneum [6]): 96%; Repellency (Tribolium castaneum [7]): 91%; Repellency (Tribolium castaneum [8]): 53%; Repellency (Tribolium castaneum [9]): 45%; Repellency (Tribolium castaneum [10]): -10%

Q: With `CC(C)=CCC/C(C)=C/CO` [GERANIOL] as the molecule, how does the Repellency (Tribolium castaneum [1]) read?
A: The Repellency was 95%.

Q: And the Repellency (Tribolium castaneum [2])?
A: Its Repellency is 74%.

Q: And the Repellency (Tribolium castaneum [3])?
A: The Repellency was 58%.

Q: And the Repellency (Tribolium castaneum [4])?
A: The Repellency was 35%.

Q: What about the Repellency (Tribolium castaneum [5]) of the same molecule?
A: Its Repellency is 4%.

Q: What about the Repellency (Tribolium castaneum [6]) of the same molecule?
A: Its Repellency is 98%.

Q: What about the Repellency (Tribolium castaneum [7]) of the same molecule?
A: Its Repellency is 75%.

Q: And the Repellency (Tribolium castaneum [8])?
A: Its Repellency is 64%.

Q: And the Repellency (Tribolium castaneum [9])?
A: The Repellency was 43%.

Q: And the Repellency (Tribolium castaneum [10])?
A: The Repellency was 6%.

Q: Which results are given for `CCCCN(CCC(=O)OCC)C(C)=O`?
A: Repellency (Tribolium castaneum [1]): 75%; Repellency (Tribolium castaneum [2]): 50%; Repellency (Tribolium castaneum [3]): 40%; Repellency (Tribolium castaneum [4]): 4%; Repellency (Tribolium castaneum [5]): -6%; Repellency (Tribolium castaneum [6]): 78%; Repellency (Tribolium castaneum [7]): 60%; Repellency (Tribolium castaneum [8]): 54%; Repellency (Tribolium castaneum [9]): 16%; Repellency (Tribolium castaneum [10]): 2%

Q: Which Repellency (Tribolium castaneum [1]) does the source give for `Cc1ccc(C(C)C)cc1O` [CARVACROL] here?
A: Its Repellency is 90%.

Q: What about the Repellency (Tribolium castaneum [2]) of the same molecule?
A: Its Repellency is 48%.

Q: And the Repellency (Tribolium castaneum [3])?
A: Its Repellency is -6%.

Q: What about the Repellency (Tribolium castaneum [4]) of the same molecule?
A: Its Repellency is 8%.

Q: What about the Repellency (Tribolium castaneum [5]) of the same molecule?
A: Its Repellency is 5%.

Q: And the Repellency (Tribolium castaneum [6])?
A: Its Repellency is 86%.

Q: What about the Repellency (Tribolium castaneum [7]) of the same molecule?
A: The Repellency was 46%.

Q: What about the Repellency (Tribolium castaneum [8]) of the same molecule?
A: The Repellency was -3%.

Q: And the Repellency (Tribolium castaneum [9])?
A: The Repellency was 9%.

Q: What about the Repellency (Tribolium castaneum [10]) of the same molecule?
A: The Repellency was 8%.

Q: What does the source list for `CC(C)=CCCC(C)CCO` (configuration not stated) [CITRONELLOL]?
A: Repellency (Tribolium castaneum [1]): 96%; Repellency (Tribolium castaneum [2]): 85%; Repellency (Tribolium castaneum [3]): 60%; Repellency (Tribolium castaneum [4]): 43%; Repellency (Tribolium castaneum [5]): 40%; Repellency (Tribolium castaneum [6]): 96%; Repellency (Tribolium castaneum [7]): 74%; Repellency (Tribolium castaneum [8]): 59%; Repellency (Tribolium castaneum [9]): 45%; Repellency (Tribolium castaneum [10]): 30%

Q: Which results are given for `O=C(OCc1ccccc1)c1ccccc1` [BENZYL BENZOATE]?
A: Repellency (Tribolium castaneum [1]): 91%; Repellency (Tribolium castaneum [2]): 44%; Repellency (Tribolium castaneum [3]): 23%; Repellency (Tribolium castaneum [4]): 18%; Repellency (Tribolium castaneum [5]): 6%; Repellency (Tribolium castaneum [6]): 93%; Repellency (Tribolium castaneum [7]): 44%; Repellency (Tribolium castaneum [8]): 16%; Repellency (Tribolium castaneum [9]): 14%; Repellency (Tribolium castaneum [10]): 3%
